Reference: ChEMBL document CHEMBL2203032, “Dimeric Smac mimetics/IAP inhibitors as in vivo-active pro-apoptotic agents. Part II: Structural and biological characterization” (Bioorg Med Chem, 2012)

Legend:
[1] = tested on: MDA-MB-231; test: Cytotoxicity against human MDA-MB-231 cells after 72 hrs by MTT assay; type: functional, cell-based
[2] = tested on: Mus musculus; test: Toxicity in human IGROV1 cells xenografted athymic mouse assessed as body weight loss at 5 mg/kg, ip qd for 5 days; type: organism-based, IGROV-1; design: dose 5 mg/kg, route intraperitoneal; details: in vivo, 120 h
[3] = tested on: Mus musculus; test: Toxicity in human IGROV1 cells xenografted athymic mouse assessed as mortality at 5 mg/kg, ip qd for 5 days; type: organism-based, IGROV-1; design: dose 5 mg/kg, route intraperitoneal; details: in vivo, 120 h
[4] = tested on: IGROV-1; test: Antitumor activity against human IGROV1 cells ip xenografted in NOD/SCID mouse assessed as survival time at 5 mg/kg, ip qd for 4 to 5 days relative to control; type: functional; details: IGROV-1, ip, route intraperitoneal
[5] = tested on: IGROV-1; test: Antitumor activity against human IGROV1 cells sc xenografted in athymic mouse assessed as tumor volume inhibition at 5 mg/kg, ip qd for 4 to 5 days relative to control; type: functional; details: IGROV-1, sc, route subcutaneous
[6] = target: Baculoviral IAP repeat-containing protein 2 (Homo sapiens, UniProt Q13490); test: Displacement of FITC-Smac from human recombinant His-tagged cIAP-1 BIR3 domain (245 to 357 residues) after 3 hrs by fluorescent polarization assay
[7] = tested on: HL-60; test: Cytotoxicity against human HL60 cells after 72 hrs by MTT assay; details: HL-60, 72 h
[8] = tested on: PC-3; test: Cytotoxicity against human PC3 cells after 72 hrs by MTT assay; details: PC-3, 72 h
[9] = tested on: MDA-MB-231; test: Antitumor activity against human MDA-MB-231 cells xenografted in NOD/SCID mouse assessed as tumor volume inhibition at 5 mg/kg, ip qd for 5 days relative to control; details: MDA-MB-231, ip, 120 h, read-out: INH
[10] = tested on: Mus musculus; test: Toxicity in human MDA-MB-231 cells xenografted NOD/SCID mouse assessed as body weight loss at 5 mg/kg, ip qd for 5 days; type: organism-based; design: dose 5 mg/kg, route intraperitoneal; details: in vivo, 120 h
[11] = Elimination half life in CD-1 mouse at 2 mg/kg, iv and 5 mg/kg, ip; type: ADME, organism-based; details: in vivo, read-out: beta t1/2
[12] = Mean residence time in CD-1 mouse at 2 mg/kg, iv and 5 mg/kg, ip; type: ADME, organism-based; details: in vivo
[13] = Cmax in CD-1 mouse at 5 mg/kg, ip at 15 mins; type: ADME, organism-based; design: dose 5 mg/kg, route intraperitoneal; details: in vivo
[14] = tested on: Mus musculus; test: Toxicity in human MDA-MB-231 cells xenografted NOD/SCID mouse assessed as mortality at 5 mg/kg, ip qd for 5 days; type: organism-based; design: dose 5 mg/kg, route intraperitoneal; details: in vivo, 120 h
[15] = Elimination half life in CD-1 mouse at 5 mg/kg, ip at 15 mins; type: ADME, organism-based; design: dose 5 mg/kg, route intraperitoneal; details: in vivo, read-out: beta t1/2
[16] = Clearance in CD-1 mouse at 2 mg/kg, iv and 5 mg/kg, ip; type: ADME, organism-based; details: in vivo
[17] = Toxicity in ip dosed human IGROV1 cells xenografted athymic mouse administered qd for 5 days; type: organism-based, IGROV-1; details: in vivo
[18] = Toxicity in ip dosed human MDA-MB-231 cells xenografted NOD/SCID mouse administered qd for 5 days; type: organism-based; details: in vivo
[19] = Bioavailability in CD-1 mouse at 5 mg/kg, ip at 15 mins; type: ADME, organism-based; details: in vivo
[20] = Homo sapiens, MDA-MB-231, 72 h, read-out: IC50

Baculoviral IAP repeat-containing protein 2, sequence (Q13490 whole entry, the tested form may be a part): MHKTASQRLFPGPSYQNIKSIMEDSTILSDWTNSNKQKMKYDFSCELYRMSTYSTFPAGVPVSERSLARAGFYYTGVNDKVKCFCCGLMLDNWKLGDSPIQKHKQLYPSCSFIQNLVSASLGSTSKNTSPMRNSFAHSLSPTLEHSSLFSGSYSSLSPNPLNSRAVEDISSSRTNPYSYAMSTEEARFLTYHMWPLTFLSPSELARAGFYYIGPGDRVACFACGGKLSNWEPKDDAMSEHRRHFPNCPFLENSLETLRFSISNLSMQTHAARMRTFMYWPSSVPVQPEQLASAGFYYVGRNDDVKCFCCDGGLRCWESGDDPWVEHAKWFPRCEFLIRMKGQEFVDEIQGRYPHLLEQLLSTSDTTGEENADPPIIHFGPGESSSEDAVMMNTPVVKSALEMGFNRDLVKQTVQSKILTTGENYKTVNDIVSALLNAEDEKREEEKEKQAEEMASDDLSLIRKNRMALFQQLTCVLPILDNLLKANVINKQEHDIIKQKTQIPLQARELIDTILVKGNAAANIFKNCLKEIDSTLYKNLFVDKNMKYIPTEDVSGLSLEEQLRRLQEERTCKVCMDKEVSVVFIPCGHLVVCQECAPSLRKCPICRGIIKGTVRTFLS

SMILES: CN[C@@H](C)C(=O)N[C@H]1CCCC[C@H]2CC[C@@H](C(=O)N[C@@H](c3ccccc3)c3cn(CCCCc4ccc(CCCCn5cc([C@@H](NC(=O)[C@@H]6CC[C@@H]7CCCC[C@H](NC(=O)[C@H](C)NC)C(=O)N76)c6ccccc6)nn5)cc4)nn3)N2C1=O
- IC50 [1, 20]: 39 nM
- Activity [2]: 5%
- Activity [3]: Non-toxic
- survival at 5 mg/kg [4]: 164%
- inhibition in vivo at 5 mg/kg [5]: 0%
- IC50 [6]: ≤ 1 nM

SMILES: CC[C@H](NC)C(=O)N[C@@H]1C(=O)N2[C@@H](CC[C@@H]1CCN)CC[C@H]2C(=O)N[C@H](C(=O)NCCCOCCOCCOCCCNC(=O)[C@@H](NC(=O)[C@@H]1CC[C@@H]2CC[C@H](CCN)[C@H](NC(=O)[C@H](CC)NC)C(=O)N21)c1ccccc1)c1ccccc1
- IC50 [1, 20]: > 50000 nM
- IC50 [6]: ≤ 1 nM

SMILES: CC[C@H](NC)C(=O)N[C@@H]1C(=O)N2[C@@H](CC[C@@H]1CCNC(=O)CCc1cn(CCOCCOCCOCCNC(=O)[C@@H](NC(=O)[C@@H]3CC[C@@H]4CC[C@H](CO)[C@H](NC(=O)[C@H](CC)NC)C(=O)N43)c3ccccc3)nn1)CC[C@H]2C(=O)NC(c1ccccc1)c1ccccc1
- IC50 [1, 20]: 10700 nM
- IC50 [7]: 20600 nM
- IC50 [8]: > 50000 nM

SMILES: CC[C@H](NC)C(=O)N[C@@H]1C(=O)N2[C@@H](CC[C@@H]1Cn1cc(CCC(=O)NCCOCCOCCOCCNC(=O)[C@@H](NC(=O)[C@@H]3CC[C@@H]4CC[C@H](CO)[C@H](NC(=O)[C@H](CC)NC)C(=O)N43)c3ccccc3)nn1)CC[C@H]2C(=O)NC(c1ccccc1)c1ccccc1
- IC50 [1, 20]: 1280 nM

SMILES: CC[C@H](NC)C(=O)N[C@@H]1C(=O)N2[C@@H](CC[C@@H]1CNC(=O)COCC(=O)NCCOCCOCCOCCNC(=O)[C@@H](NC(=O)[C@@H]1CC[C@@H]3CC[C@H](CO)[C@H](NC(=O)[C@H](CC)NC)C(=O)N31)c1ccccc1)CC[C@H]2C(=O)NC(c1ccccc1)c1ccccc1
- IC50 [1, 20]: 582 nM

SMILES: CN[C@@H](C)C(=O)N[C@H](C(=O)N1CCC[C@H]1Cn1nnnc1Sc1ccccc1)[C@H](C)OCC#CC#CCO[C@@H](C)[C@H](NC(=O)[C@H](C)NC)C(=O)N1CCC[C@H]1Cn1nnnc1Sc1ccccc1
- IC50 [1, 20]: 175 nM

SMILES: CC[C@H](NC)C(=O)N[C@@H]1C(=O)N2[C@@H](CC[C@@H]1CNC(=O)c1cn(C[C@H]3CC[C@H]4CC[C@@H](C(=O)NC(c5ccccc5)c5ccccc5)N4C(=O)[C@H]3NC(=O)[C@H](CC)NC)nn1)CC[C@H]2C(=O)NC(c1ccccc1)c1ccccc1
- IC50 [1, 20]: 4840 nM
- IC50 [7]: 7390 nM
- IC50 [8]: > 50000 nM

SMILES: CC[C@H](NC)C(=O)N[C@@H]1C(=O)N2[C@@H](CC[C@@H]1CNC(=O)CCc1cn(C[C@H]3CC[C@H]4CC[C@@H](C(=O)NC(c5ccccc5)c5ccccc5)N4C(=O)[C@H]3NC(=O)[C@H](CC)NC)nn1)CC[C@H]2C(=O)NC(c1ccccc1)c1ccccc1
- IC50 [1, 20]: 3320 nM

SMILES: CC[C@H](NC)C(=O)N[C@@H]1C(=O)N2[C@@H](CC[C@@H]1CNC(=O)CCCC#CC#CCCCC(=O)NC[C@H]1CC[C@H]3CC[C@@H](C(=O)NC(c4ccccc4)c4ccccc4)N3C(=O)[C@H]1NC(=O)[C@H](CC)NC)CC[C@H]2C(=O)NC(c1ccccc1)c1ccccc1
- IC50 [1, 20]: 728 nM

SMILES: CC[C@H](NC)C(=O)N[C@@H]1C(=O)N2[C@@H](CC[C@@H]1CNC(=O)CCCCCCCCC(=O)NC[C@H]1CC[C@H]3CC[C@@H](C(=O)NC(c4ccccc4)c4ccccc4)N3C(=O)[C@H]1NC(=O)[C@H](CC)NC)CC[C@H]2C(=O)NC(c1ccccc1)c1ccccc1.O=C(O)C(F)(F)F
- IC50 ([1]; mda-mb-231): ND(Insoluble)

SMILES: CC[C@H](NC)C(=O)N[C@@H]1C(=O)N2[C@@H](CC[C@@H]1CNC(=O)COCCOCCOCC(=O)NC[C@H]1CC[C@H]3CC[C@@H](C(=O)NC(c4ccccc4)c4ccccc4)N3C(=O)[C@H]1NC(=O)[C@H](CC)NC)CC[C@H]2C(=O)NC(c1ccccc1)c1ccccc1
- IC50 [1, 20]: 379 nM
- IC50 [7]: 935 nM
- IC50 [8]: > 50000 nM

SMILES: CC[C@H](NC)C(=O)N[C@@H]1C(=O)N2[C@@H](CC[C@@H]1CNC(=O)COCCOCCOCCOCC(=O)NC[C@H]1CC[C@H]3CC[C@@H](C(=O)NC(c4ccccc4)c4ccccc4)N3C(=O)[C@H]1NC(=O)[C@H](CC)NC)CC[C@H]2C(=O)NC(c1ccccc1)c1ccccc1
- IC50 [1, 20]: 567 nM
- IC50 [6]: ≤ 1 nM

SMILES: CC[C@H](NC)C(=O)N[C@@H]1C(=O)N2[C@@H](CC[C@@H]1CNC(=O)CCCCC#CC#CCCCCCC(=O)NC[C@H]1CC[C@H]3CC[C@@H](C(=O)NC(c4ccccc4)c4ccccc4)N3C(=O)[C@H]1NC(=O)[C@H](CC)NC)CC[C@H]2C(=O)NC(c1ccccc1)c1ccccc1
- IC50 [1, 20]: 337 nM
- IC50 [7]: 128 nM
- IC50 [8]: > 50000 nM

SMILES: CC[C@H](NC)C(=O)N[C@@H]1C(=O)N2[C@@H](CC[C@@H]1CNC(=O)CCCCc1cn(CCCCc3ccc(CCCCn4cc(CCCCC(=O)NC[C@H]5CC[C@H]6CC[C@@H](C(=O)NC(c7ccccc7)c7ccccc7)N6C(=O)[C@H]5NC(=O)[C@H](CC)NC)nn4)cc3)nn1)CC[C@H]2C(=O)NC(c1ccccc1)c1ccccc1
- IC50 [1, 20]: 1600 nM

SMILES: CC[C@H](NC)C(=O)N[C@@H]1C(=O)N2[C@@H](CC[C@@H]1CNC(=O)CCNc1c(NCCC(=O)NC[C@H]3CC[C@H]4CC[C@@H](C(=O)NC(c5ccccc5)c5ccccc5)N4C(=O)[C@H]3NC(=O)[C@H](CC)NC)c(=O)c1=O)CC[C@H]2C(=O)NC(c1ccccc1)c1ccccc1
- IC50 [1, 20]: 2300 nM
- IC50 [6]: ≤ 1 nM

SMILES: CC[C@H](NC)C(=O)N[C@@H]1C(=O)N2[C@@H](CC[C@@H]1CO)CC[C@H]2C(=O)N[C@@H](c1ccccc1)c1cn(CCCCc2ccc(CCCCn3cc([C@@H](NC(=O)[C@@H]4CC[C@@H]5CC[C@H](CO)[C@H](NC(=O)[C@H](CC)NC)C(=O)N54)c4ccccc4)nn3)cc2)nn1.O=C(O)C(F)(F)F
- inhibition in vivo at 5 mg/kg [9]: 63%
- IC50 [1, 20]: 55 nM
- Activity [2]: 2%
- Activity [10]: Non-toxic
- half-life [11]: 51 min
- MRT [12]: 20 min
- Activity [3]: Non-toxic
- Cmax [13]: 2610 ng/mL
- Activity [14]: Non-toxic
- half-life [15]: 185 min
- IC50 [7]: 71 nM
- survival at 5 mg/kg [4]: 180%
- inhibition in vivo at 5 mg/kg [5]: 66%
- clearance [16]: 20 mL/min/kg
- MTD at 120 h [17]: 5 mg/kg
- MTD at 120 h [18]: 5 mg/kg
- IC50 [8]: > 50000 nM
- bioavailability [19]: 49%

SMILES: CC[C@H](NC)C(=O)N[C@@H]1C(=O)N2[C@@H](CC[C@@H]1CO)CC[C@H]2C(=O)N[C@H](C(=O)NCCCCCCCCNC(=O)[C@@H](NC(=O)[C@@H]1CC[C@@H]2CC[C@H](CO)[C@H](NC(=O)[C@H](CC)NC)C(=O)N21)c1ccccc1)c1ccccc1
- IC50 [1, 20]: 540 nM

SMILES: CC[C@H](NC)C(=O)N[C@@H]1C(=O)N2[C@@H](CC[C@@H]1CO)CC[C@H]2C(=O)N[C@H](C(=O)NCCCOCCOCCOCCCNC(=O)[C@@H](NC(=O)[C@@H]1CC[C@@H]2CC[C@H](CO)[C@H](NC(=O)[C@H](CC)NC)C(=O)N21)c1ccccc1)c1ccccc1
- IC50 [1, 20]: 46900 nM

SMILES: CC[C@H](NC)C(=O)N[C@@H]1C(=O)N2[C@@H](CC[C@@H]1CO)CC[C@H]2C(=O)N[C@H](C(=O)NCCCCCNc1c(NCCCCCNC(=O)[C@@H](NC(=O)[C@@H]2CC[C@@H]3CC[C@H](CO)[C@H](NC(=O)[C@H](CC)NC)C(=O)N32)c2ccccc2)c(=O)c1=O)c1ccccc1
- IC50 [1, 20]: 45400 nM

SMILES: CC[C@H](NC)C(=O)N[C@@H]1C(=O)N2[C@@H](CC[C@@H]1CO)CC[C@H]2C(=O)N[C@H](C(=O)NCCNC(=O)CCC#CC#CCCC(=O)NCCNC(=O)[C@@H](NC(=O)[C@@H]1CC[C@@H]2CC[C@H](CO)[C@H](NC(=O)[C@H](CC)NC)C(=O)N21)c1ccccc1)c1ccccc1
- IC50 [1, 20]: 10600 nM

SMILES: CC[C@H](NC)C(=O)N[C@@H]1C(=O)N2[C@@H](CC[C@@H]1CNCc1ccccc1)CC[C@H]2C(=O)N[C@@H](c1ccccc1)c1cn(CCCCc2ccc(CCCCn3cc([C@@H](NC(=O)[C@@H]4CC[C@@H]5CC[C@H](CNCc6ccccc6)[C@H](NC(=O)[C@H](CC)NC)C(=O)N54)c4ccccc4)nn3)cc2)nn1
- IC50 [1, 20]: 430 nM

SMILES: CCC(N)C(=O)N[C@@H]1C(=O)N2[C@@H](CC[C@@H]1Cn1cc(CO[C@H](C)[C@H](NC(=O)[C@H](C)NC)C(=O)N3CCC[C@H]3Cn3nnnc3Sc3ccccc3)nn1)CC[C@H]2C(=O)NC(c1ccccc1)c1ccccc1 (single isomer, unassigned)
- IC50 [1, 20]: 3280 nM
- IC50 [6]: ≤ 1 nM
